Key:
DLK = target: T1, DLK (Homo sapiens, UniProt Q12852); experiment: DLK biochemical assay (TR-FRET, MKK7 phosphorylation); conditions: DLK catalytic domain, MKK7 substrate, 60 μM ATP
T1 construct: 10 nM DLK, catalytic domain, Carna Biosiences; purchased Carna Biosciences ('Carna Biosiences' [sic])
T1 sequence (Q12852 125-366 limits assumed): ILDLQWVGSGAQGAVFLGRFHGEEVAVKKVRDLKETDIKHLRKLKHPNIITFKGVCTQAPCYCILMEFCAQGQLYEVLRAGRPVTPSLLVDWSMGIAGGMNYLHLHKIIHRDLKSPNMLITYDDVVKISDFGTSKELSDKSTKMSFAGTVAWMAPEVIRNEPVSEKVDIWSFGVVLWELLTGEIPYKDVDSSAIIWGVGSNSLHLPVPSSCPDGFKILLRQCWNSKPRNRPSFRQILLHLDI
In short: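 TR-FRET read-out (ratio of 665 nm acceptor to Eu donor channel) tracks MKK7 T275/S277 phosphorylation by DLK, using Eu-labelled anti-phospho-MKK7 and XL665-labelled anti-His on His-MKK7. Reactions were stopped and detected in pH 7.5 Tris buffer containing 100 mM EDTA, 100 mM NaCl, 200 mM KF and 0.01% Tween 20.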

LZK = target: T2, LZK (Homo sapiens, UniProt O43283); experiment: LZK biochemical assay (TR-FRET, MKK7 phosphorylation); conditions: LZK catalytic domain, MKK7 substrate, 15 μM ATP
T2 construct: 10 nM LZK, catalytic domain, Carna Biosiences in assay buffer; purchased Carna Biosciences ('Carna Biosiences' [sic])
T2 sequence (O43283 168-409 limits assumed): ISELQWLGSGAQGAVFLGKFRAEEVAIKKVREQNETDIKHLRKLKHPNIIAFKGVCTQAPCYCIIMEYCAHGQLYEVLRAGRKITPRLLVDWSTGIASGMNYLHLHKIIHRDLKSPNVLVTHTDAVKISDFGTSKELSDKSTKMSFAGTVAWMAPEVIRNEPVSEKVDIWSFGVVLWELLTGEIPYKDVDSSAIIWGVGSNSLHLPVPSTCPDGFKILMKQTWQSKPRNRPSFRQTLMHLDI

IC50 (DLK) [nM]	IC50 (LZK) [nM]	SMILES
6.5	6.3	CCC(c1ccc(C(F)F)nc1)n1cc(-c2cc(C(=O)N[C@@H](C)CC)n3nc(N)nc3c2)cn1 (single isomer, unassigned) [Example I-93]
1	1.9	CC[C@H](C)NC(=O)c1cc(-c2cnn([C@@H](CC)c3ccc(C(F)F)nc3)c2)cc2nc(N)nn12 (single isomer, unassigned) [Example I-94]
14	17	CC[C@H](C)NC(=O)c1cc(-c2cnn(C(c3ccc(C(F)F)nc3)C(C)C)c2)cc2nc(N)nn12 (single isomer, unassigned) [Example I-96]
0.9	2.1	CC[C@H](C)NC(=O)c1cc(-c2cnn([C@H](c3ccc(C(F)F)nc3)C(C)C)c2)cc2nc(N)nn12 (single isomer, unassigned) [Example I-97]
31	14	CC[C@H](C)NC(=O)c1cc(-c2cnn(C(c3ccc(C(F)F)nc3)C3CC3)c2)cc2nc(N)nn12 (single isomer, unassigned) [Example I-99]
2.8	4.3	CC[C@H](C)NC(=O)c1cc(-c2cnn(C(c3ccc(C(F)F)nc3)C3CC3)c2)cc2nc(N)nn12 (single isomer, unassigned) [Example I-100]
7	11	CC[C@H](c1ccc(C(F)(F)F)nc1)n1cc(-c2cc(C(=O)N[C@@H](C)CC)n3nc(N)nc3c2)cn1 (single isomer, unassigned) [Example I-102]
0.8	2.4	CC[C@H](C)NC(=O)c1cc(-c2cnn([C@@H](CC)c3ccc(C(F)(F)F)nc3)c2)cc2nc(N)nn12 (single isomer, unassigned) [Example I-103]
13	14	CC[C@H](C)NC(=O)c1cc(-c2cnn(C(c3ccc(C(F)(F)F)nc3)C(C)C)c2)cc2nc(N)nn12 (single isomer, unassigned) [Example I-105]
28	17	CC[C@H](C)NC(=O)c1cc(-c2cnn(C(c3ccc(C(F)(F)F)nc3)C3CC3)c2)cc2nc(N)nn12 (single isomer, unassigned) [Example I-108]
1.8	3.5	CC[C@H](C)NC(=O)c1cc(-c2cnn([C@H](c3ccc(C(F)(F)F)nc3)C3CC3)c2)cc2nc(N)nn12 (single isomer, unassigned) [Example I-109]
0.5	1.4	CC[C@H](C)NC(=O)c1cc(-c2cnn(C(c3ccc(C(F)(F)F)nc3)C3CCOCC3)c2)cc2nc(N)nn12 (single isomer, unassigned) [Example I-111]
8	7	CC[C@H](C)NC(=O)c1cc(-c2cnn(C(c3ccc(C(F)(F)F)nc3)C3CCOCC3)c2)cc2nc(N)nn12 (single isomer, unassigned) [Example I-112]
49	130	CCC(c1ccc(OCC(F)(F)F)nc1)n1cc(-c2cc(C(=O)N[C@@H](C)CC)n3nc(N)nc3c2)cn1 (single isomer, unassigned) [Example I-114]
4.2	20	CCC(c1ccc(OCC(F)(F)F)nc1)n1cc(-c2cc(C(=O)N[C@@H](C)CC)n3nc(N)nc3c2)cn1 (single isomer, unassigned) [Example I-115]
73	250	CC[C@H](C)NC(=O)c1cc(-c2cnn(C(c3ccc(OCC(F)(F)F)nc3)C(C)C)c2)cc2nc(N)nn12 (single isomer, unassigned) [Example I-117]
8.6	29	CC[C@H](C)NC(=O)c1cc(-c2cnn(C(c3ccc(OCC(F)(F)F)nc3)C(C)C)c2)cc2nc(N)nn12 (single isomer, unassigned) [Example I-118]

IC50 (DLK) [nM]	IC50 (LZK) [nM]	SMILES
44	140	CC[C@H](C)NC(=O)c1cc(-c2cnn(C(c3ccc(OCC(F)(F)F)nc3)C3CC3)c2)cc2nc(N)nn12 (single isomer, unassigned) [Example I-120]
1.9	30	CC[C@H](C)NC(=O)c1cc(-c2cnn(C(c3ccc(OCC(F)(F)F)nc3)C3CC3)c2)cc2nc(N)nn12 (single isomer, unassigned) [Example I-121]
60	270	CC[C@H](C)NC(=O)c1cc(-c2cnn(C(c3c(F)cncc3F)C(C)C)c2)cc2nc(N)nn12 (single isomer, unassigned) [Example I-124]
5.4	66	CC[C@H](C)NC(=O)c1cc(-c2cnn(C(c3c(F)cncc3F)C(C)C)c2)cc2nc(N)nn12 (single isomer, unassigned) [Example I-125]
17	52	CC[C@H](C)NC(=O)c1cc(-c2cnn(C(c3ccnc(OC)c3)C(C)C)c2)cc2nc(N)nn12 (single isomer, unassigned) [Example I-127]
0.5	3.3	CC[C@H](C)NC(=O)c1cc(-c2cnn([C@H](c3ccnc(OC)c3)C(C)C)c2)cc2nc(N)nn12 (single isomer, unassigned) [Example I-128]
53	100	CCC(c1ccc(Cl)s1)n1cc(-c2cc(C(=O)N[C@@H](C)CC)c3nc(N)nn3c2)cn1 (single isomer, unassigned) [Example I-130]
1.5	33	CCC(c1ccc(Cl)s1)n1cc(-c2cc(C(=O)N[C@@H](C)CC)c3nc(N)nn3c2)cn1 (single isomer, unassigned) [Example I-131]
110	330	CC[C@H](NC(=O)c1cc(-c2cnn(Cc3ccccc3)c2)cn2nc(N)nc12)C(F)(F)F (single isomer, unassigned) [Example I-133]
230	970	CC[C@@H](NC(=O)c1cc(-c2cnn(Cc3ccccc3)c2)cn2nc(N)nc12)C(F)(F)F (single isomer, unassigned) [Example I-134]
190	550	COC[C@H](C)NC(=O)c1cc(-c2cnn(Cc3ccc(F)cc3)c2)cn2nc(N)nc12 (single isomer, unassigned) [Example I-135, 2-Amino-6-{1-[(4-fluorophenyl)methyl]-1H-pyrazol-4-yl}-N-[(25)-1-methoxypropan-2-yl][1,2,4]triazolo[1,5-a]pyridine-8-carboxamide]
1.7	64	CC(CF)NC(=O)c1cc(-c2cnn(C(c3ccccc3)C(C)C)c2)cn2nc(N)nc12 (single isomer, unassigned) [Example I-139, 2-Amino-N-(1-fluoropropan-2-yl)-6-{1-[2-methyl-1-phenylpropyl]-1H-pyrazol-4-yl}[1,2,4]triazolo[1,5-a]pyridine-8-carboxamide]
0.5	32	CC(CF)NC(=O)c1cc(-c2cnn(C(c3ccccc3)C(C)C)c2)cn2nc(N)nc12 (single isomer, unassigned) [Example I-140, 2-Amino-N-(1-fluoropropan-2-yl)-6-[1-(2-methyl-1-phenylpropyl)-1H-pyrazol-4-yl][1,2,4]triazolo[1,5-a]pyridine-8-carboxamide]
26	355	CC(CF)NC(=O)c1cc(-c2cnn(C(c3ccccc3)C(C)C)c2)cn2nc(N)nc12 (single isomer, unassigned) [Example I-141, 2-Amino-N-(1-fluoropropan-2-yl)-6-[1-(2-methyl-1-phenylpropyl)-1H-pyrazol-4-yl][1,2,4]triazolo[1,5-a]pyridine-8-carboxamide]
4.2	240	CC(CF)NC(=O)c1cc(-c2cnn(C(c3ccccc3)C(C)C)c2)cn2nc(N)nc12 (single isomer, unassigned) [Example I-142, 2-Amino-N-[1-fluoropropan-2-yl]-6-{1-[2-methyl-1-phenylpropyl]-1H-pyrazol-4-yl}[1,2,4]triazolo[1,5-a]pyridine-8-carboxamide]
110	110	CC(CF)NC(=O)c1cc(-c2cnn(C3CCOc4ccccc43)c2)cn2nc(N)nc12 (single isomer, unassigned) [Example I-145, 2-Amino-6-[1-(3,4-dihydro-2H-chromen-4-yl)-1H-pyrazol-4-yl]-N-(1-fluoropropan-2-yl)[1,2,4]triazolo[1,5-a]pyridine-8-carboxamide]
130	85	CC(CF)NC(=O)c1cc(-c2cnn(C3CCOc4ccccc43)c2)cn2nc(N)nc12 (single isomer, unassigned) [Example I-146, 2-Amino-6-[1-(3,4-dihydro-2H-chromen-4-yl)-1H-pyrazol-4-yl]-N-(1-fluoropropan-2-yl)[1,2,4]triazolo[1,5-a]pyridine-8-carboxamide]

From patent US20230086702A1, “SUBSTITUTED 2-AMINO-PYRAZOLYL-[1,2,4]TRIAZOLO[1,5A]PYRIDINE DERIVATIVES AND USE THEREOF” (The Johns Hopkins University, priority 2019, published 2023)
